Results as given in patent US12508260B2, “Combination treatments” (Celex Oncology Innovations Limited, priority 2019, dated 2025).
Read-outs that look alike come from different tables or passages of the source.

Columns and labels:
MDA-MB-231 cells [1] = assay: Matrigel invasion assay, MDA-MB-231 cells; format: cell-based, human
MDA-MB-468 cells [2] = assay: Matrigel invasion assay, MDA-MB-468 cells; format: cell-based, human; conditions: hypoxia, FIG. 8
MDA-MB-468 cells [3] = assay: Cell viability, trypan blue dye exclusion, MDA-MB-468; format: cell-based, human; conditions: normoxia or hypoxia, 48 h
Method: (§1) Cell viability was determined with the use of trypan blue dye exclusion assay. The assay was undertaken both in normoxic and hypoxic conditions. Upon completion of the treatment period, the media was aspirated and replaced with 0.2 mL of 0.4% trypan blue (Sigma-Aldrich) and 0.8 mL of DMEM media. The dish was mixed and incubated for 10 min in the humidified chamber. The trypan blue solution was replaced with 1 mL of DMEM and the dishes were observed under an inverted microscope (ID 03, Zeiss) at 100× magnification under phase contrast. The MTT assay was used to assess cell metabolic activity by determining the level of NAD (P) H-dependent cellular oxidoreductase enzymes. Cells were seeded in 24 well plates (Becton Dickinson, Oxford, UK) at 2×10^4 cells/well and were allowed to settle overnight before treatment. During the treatment, 500 μL of solution was added to each well and the assays were undertaken in both normoxic and hypoxic conditions. Upon treatment completion, 400 μL of DMEM and 100 μL of MTT was added into each well. […] The plates were rocked at 150 cycles/min for 5 min to mix the formazan with DMSO and the resulting formazan absorbance was measured at 570 nm with a multi-plate reader (ELX800 Universal Microplate Reader, Bio-Tek Instruments, UK). Two measurements for each result were recorded with a 5 min interval and the average was calculated.

MDA-MB-231 cells [4] = assay: Cell viability, trypan blue dye exclusion, MDA-MB-231; format: cell-based, human; conditions: normoxia or hypoxia, 48 h
Method: as §1

VGSC = molecular target: T1, VGSC (Homo sapiens, UniProt Q14524, S234P/V215L); assay: Whole-cell patch clamp of VGSC current in MDA-MB-231 cells; format: cell-based
T1 construct: minoxidil on the VGSC activity in MDA-MB-231 cells; endogenous in cells; host or cells: MDA-MB-231 (human breast cancer cell line)
Method: Whole-cell patch clamp recordings are performed on cells under superfusion with mammalian physiological saline (MPS). Details of whole-cell recordings have been described previously (Fraser et al., 2003, 2005; Grimes et al., 1995; Laniado et al., 1997). In brief, MPS contains (in mM): 144 NaCl, 5.4 KCl, 1 MgCl2, 2.5 CaCl2), 5 HEPES and 5.6 D-glucose (adjusted to pH 7.3 with NaOH). Patch pipettes (tip resistances, ˜5 MΩ) are filled with a solution designed to block the outward K^+ currents (in mM): NaCl 5, CsCl 145, MgCl2 2, CaCl2) 1, HEPES 10 and EGTA 11, adjusted to pH 7.4 with 1 M CsOH. The estimated intracellular free Ca^2+ concentration is ˜15 nM (Laniado et al., 2001). A holding potential of −100 mV is applied. Standard voltage-clamp protocols are used to study the electrophysiological properties of the VGSC currents. Mainly the following characteristics are studied: peak current (and its density), current-voltage relationship (current normalized to peak), steady-state inactivation/“availability”=test current (I)/maximum current (Imax); recovery from inactivation=test current (It)/control current (Ic). For accurate determination of the acute effect of minoxidil on peak current block, only currents larger than 200 pA are used. Further details of the voltage-clamp protocols, data analysis and curve fitting have been published earlier (Onkal et al., 2008).

nNav1.5 protein = assay: Immunocytochemistry of nNav1.5 protein expression in MDA-MB-231 cells; format: cell-based, human; conditions: hypoxia
Method: Cells were first seeded in 35×10 mm dishes (Becton Dickinson) at 5×10^5 cell/dish and left to settle overnight. The cells were pre-treated with treatment solutions for 32 h. The assay was only performed under hypoxia conditions. Before seeding the cells, 13 mm coverslips were placed in 24 well plates and 500 μL poly-L-lysine (Sigma) was added to each well for 20 min. After the period of pre-treatments, cells were trypsinized and seeded at 2×10^4 cells/coverslip in 500 μL of their respective treatment solutions. The plates were incubated under hypoxic condition and the assay was allowed for 16 h. At least two coverslips were prepared for each experiment. Upon assay completion, the coverslips were washed with phosphate buffered saline (PBS) before being fixed with 500 μL of 4% paraformaldehyde (Sigma) diluted in PBS. Fixation was for 10 min at room temperature on an orbital shaker. Coverslips were then washed 3×5 min in PBS. One of the coverslips for each condition was permeabilised with 500 μL 0.1% saponin/PBS solution (Sigma) for 4 min and 3×5 min of PBS washes followed. Permeabilised and non-permeabilised coverslips were all were treated with 500 μL 5% bovine serum albumin (BSA)/PBS (pH 7.4, v/v; Dako, Cambridge, UK) blocking agent for 1 h. Coverslips were transferred from the 24 well plate to a humidity chamber and were incubated with 100 μL of the primary antibody (NESOpAb) at a 1:200 dilution of the 0.7 mg/mL stock on an orbital shaker overnight at 3-5° C. The primary antibody used was NESOpAb which can specifically recognize and bind an external epitope sequence of the neonatal isoform of Nav1.5 […] et al., 2005). Coverslips were then rinsed with 3×5 min PBS and incubated with 100 μL of the secondary antibody, goat anti-rabbit IgG Alexa Fluor® 568, at a 1:100 concentration (Dako) for 1 h in darkness at room temperature. Coverslips for negative controls (which were incubated with secondary antibody only) were also prepared to check the specificity of the primary antibody. Coverslips were then rinsed with 3×5 min PBS+0.1% BSA and dipped in distilled water before being mounted on glass slides using mounting medium (Dako) and stored in darkness at 3-5° C. Images were taken with a Canon® digital camera inserted into an Axioimager immunofluorescence and phase contrast inverted microscope (Zeiss) and processed with Remote Capture Software® (Canon). ImageJ was used to analyse and quantify the corrected total cell florescence.

[5] = 50 μM minoxidil, short-term (acute) application, FIG. 11

With `COc1cc2ncnc(Nc3cccc(Cl)c3)c2cc1OC` [AG1478, N-(3-chlorophenyl)-6,7-dimethoxy-4-quinazolinamine] the “effect on invasiveness (normalized to control)” value (MDA-MB-231 cells [1]; 10 μM AG1478, normoxia, FIG. 10) was “significant inhibitory effect”.

For `Nc1cc(N2CCCCC2)nc(N)[n+]1[O-]` [minoxidil, 6-(1-Piperidinyl)pyrimidine-2,4-diamine 3-oxide], the “reduction of cell invasion” value (MDA-MB-468 cells [2]; 2.5 μM minoxidil) was 44%, the “effect on cell viability” value (MDA-MB-468 cells [3]; 50 μM minoxidil) was “no effect” and the “effect on cell viability” value (MDA-MB-231 cells [4]; 50 μM minoxidil) was “no effect”. The “reduction of cell invasion” value (MDA-MB-231 cells [1]; 2.5 μM minoxidil, hypoxia, FIG. 6a) was 24%, the “reduction of cell invasion” value (MDA-MB-231 cells [1]; 2.5 μM minoxidil, hypoxia, FIG. 6b) was 41% and the “reduction of cell invasion” value (MDA-MB-231 cells [1]; 2.5 μM minoxidil, hypoxia, FIG. 6c) was 42%. The “reduction of cell invasion” value (MDA-MB-231 cells [1]; 2.5 μM minoxidil, hypoxia, FIG. 7a) was 49%, the “reduction of cell invasion” value (MDA-MB-231 cells [1]; 2.5 μM minoxidil, hypoxia, set with 5 μM ranolazine (FIG. 4b/5b)) was 48% and the “reduction of cell invasion” value (MDA-MB-231 cells [1]; 2.5 μM minoxidil, normoxia, FIG. 7b) was 53%. The “reduction of cell invasion” value (MDA-MB-231 cells [1]; 5 μM minoxidil, hypoxia, FIG. 5a) was 56%, the “reduction of cell invasion” value (MDA-MB-231 cells [1]; 50 μM minoxidil, hypoxia, FIG. 5a) was 89% and the “effect on VGSC characteristics” value (VGSC; 50 μM minoxidil, long-term (48 hour) treatment under hypoxia, then washing off, FIG. 12) was “no change”. For the same compound, the “effect on peak current” value (VGSC; [5]) was “no effect”, the “effect on steady-state inactivation” value (VGSC; [5]) was “shifted the steady-state inactivation to more hyperpolarised potentials” and the “effect on nNav1.5 protein expression” value (nNav1.5 protein; 50 μM minoxidil, non-permeabilized cells, FIG. 9a, P=0.58) was “neither minoxidil nor the drug combination had a significant effect”. For the same compound, the “reduction of nNav1.5 protein expression” value (nNav1.5 protein; 50 μM minoxidil, permeabilized cells (total), FIG. 9b) was 49%.

With `COc1ccccc1OCC(O)CN1CCN(CC(=O)Nc2c(C)cccc2C)CC1` (stereo not shown) [ranolazine, N-(2,6-Dimethylphenyl)-4-[2-hydroxy-3-(2-methoxyphenoxy)propyl]-1-piperazineacetamide] the “reduction of cell invasion” value (MDA-MB-468 cells [2]; 2.5 μM ranolazine) was 33%, the “effect on cell viability” value (MDA-MB-468 cells [3]; 5 μM ranolazine) was “no effect” and the “effect on cell viability” value (MDA-MB-231 cells [4]; 5 μM ranolazine) was “no effect”. For the same compound, the “reduction of cell invasion” value (MDA-MB-231 cells [1]; 0.625 μM ranolazine, hypoxia, FIG. 6c) was 24%, the “reduction of cell invasion” value (MDA-MB-231 cells [1]; 1.25 μM ranolazine, hypoxia, FIG. 6b) was 32% and the “reduction of cell invasion” value (MDA-MB-231 cells [1]; 2.5 μM ranolazine, hypoxia, FIG. 6a) was 36%. For the same compound, the “reduction of cell invasion” value (MDA-MB-231 cells [1]; 2.5 μM ranolazine, hypoxia, FIG. 7a) was 30%, the “effect on cell invasion” value (MDA-MB-231 cells [1]; 2.5 μM ranolazine, normoxia, FIG. 7b) was “no effect” and the “reduction of cell invasion” value (MDA-MB-231 cells [1]; 5 μM ranolazine, hypoxia, FIG. 5a) was 42%. For the same compound, the “reduction of cell invasion” value (MDA-MB-231 cells [1]; 5 μM ranolazine, hypoxia, set with 2.5 μM minoxidil (FIG. 4b/5b)) was 43%, the “effect on the transient ('peak') component of VGSC current” value (VGSC; ranolazine at the concentrations used in the Examples (<<10 µM), FIG. 2) was “hardly any effect” and the “reduction of nNav1.5 protein expression” value (nNav1.5 protein; 5 μM ranolazine, non-permeabilized cells (plasma membrane), FIG. 9a) was 30%. For the same compound, the “reduction of nNav1.5 protein expression” value (nNav1.5 protein; 5 μM ranolazine, permeabilized cells (total), FIG. 9b) was 43%.

For `NC1=N[C@H](O)[C@H]2[C@H]3O[C@]4(O)O[C@@H]([C@@H](O)[C@@]2(N1)[C@@H]4O)[C@]3(O)CO` [TTX, Tetrodotoxin], the “effect on invasiveness (normalized to control)” value (MDA-MB-231 cells [1]) was “slight effect but this is not significant”.
